Non-standard residues stand in square brackets, D forms with d. Residues, ends and D or L forms follow the SMILES beside them. *: point of attachment. Phenylacetyl(2,3,4,5,6-F5) = O=C(Cc1c(F)c(F)c(F)c(F)c1F)*; Phe(F5) = N[C@@H](Cc1c(F)c(F)c(F)c(F)c1F)C(=O)O; Phe(4-Cl) = N[C@@H](Cc1ccc(Cl)cc1)C(=O)O; hArg = N=C(N)NCCCC[C@H](N)C(=O)O; 12Ado = NCCCCCCCCCCCC(=O)O; Nle = CCCC[C@H](N)C(=O)O; Abu = CC[C@H](N)C(=O)O
Columns and labels:
[1] = tested on: pancreatic cancer PANC-1 xenograft; experiment: Xenograft tumor growth in nude mice, PANC-1; assay type: in vivo; settings: Table 4A, Pancreatic Ca PANC-1, 7 weeks; for % Inhibition: vs control
Experimental: (§1) The peptides' activity was compared with GHRH antagonist MIA-602. All statistical analyzses were performed from comparing GHRA antagonists to non-treated tumor (control).
(§2) Peptides and chemicals. GHRH antagonists MIA-602 and AVR-GHRH antagonists (see Table 2 above) were synthesized by solid phase methods and purified by HPLC. The peptides were dissolved in DMSO and further diluted in 10% 1,2-propanediol. The final concentration of peptides was 50 µg/ml in 10% 1,2-propanediol containing 0.1% of DMSO.
(§3) Cell culture. Human cancer cell lines including pancreatic (PANC-1 and CFPAC-1), lung (HCC827 and H460), stomach (NCI-N87), prostate (PC3), brest (MX-1 and HCC-1806), colorectal (HT-29), and ovarian (SK-OV-3 and OVCAR-3) were obtained from the American Type Culture Collection (ATCC) and cultured at 37° C. in a humidified 95% air/5% CO2 atmosphere in the medium recommended by ATCC.
(§4) Xenograft models of human cancers in nude mice. Female athymic (NCr nu/nu) nude mice, 5- to 6-weeks-old, obtained from the Envigo labs (Tampa, Fla.), were housed in laminar airflow cabinets under pathogen-free conditions with a 12-h light/12-h dark schedule, and were fed autoclaved standard chow and water. To generate mice with xenografted tumors, tumor xenografts were initiated by subcutaneous (s.c.) injection of 107 human cancer cells into female nude mice. After about 4 weeks the resulting tumors were dissected and collected after removing necrosis tissues. The tumors were then cut into particles with size of 3 mm3 and transplanted s.c. by trocar needle into experimental animals. When tumors grew to the size of 50-60 mm3 (by volume), mice were randomized into groups and treated daily for 4-8 weeks by subcutaneous administration of 5 μg of GHRH antagonists MIA-602 or AVR-compounds (2-10 μg as indicated), or vehicle solutions (0.1% DMSO in 10% 1,2-propanediol) respectively. Tumor sizes were measured weekly.
(§5) Statistical analysis. One-way ANOVA followed by Bonferroni comparison were performed. Data are expressed as Mean±SEM. To determine statistical significance between animal groups, two-tailed Student's t-test was conducted. Differences were considered significant when p<0.05.
(§6) Results. […] FIG. 1A-N represents in vivo inhibition of tumor growth during the treatment with GHRH antagonist MIA-602 and selected AVR antagonists in nude mice xenografted with various human tumors including pancreatic cancer PANC-1 (FIG. 1A) and CFPAC-1 (FIG. 1I); lung cancer HCC827 (FIGS. 1B, C) and H460 (FIG. 1H); stomach cancer N87 (FIGS. 1D-F); colon cancer HT-29 (FIG. 1G); breast cancer MX-1 and HCC-1806 (FIGS. 1J, K); ovarian cancer SK-OV-3 and OVACAR-3 (FIGS. 1 L, M) and prostate cancer PC3 (FIG. 1N). See also Table 5.

[2] = tested on: HCC1806 breast cancer cells; experiment: In vitro cell viability, HCC1806; assay type: cell-based, human; settings: Table 3B; 5 μM for 72 H; MIA-602 = 1
Experimental: (§7) The inhibitory effects of the various synthesized GHRH antagonists were tested in cell proliferation assays in various human cancer cell lines including stomach cancer (KATOIII, N87), colon cancer (HT-29), urothelial cancer (J82, RT4), pancreatic cancer (PANC-1, CFPAC-1), prostatic cancer (PC3), breast cancer (MX-1, HCC1806), ovarian cancer (SK-OV-3, OVCAR-3) and lung cancer (HCC827, H460).
as §3, with “(NCI-N87 and KATOIII), urothelial (J82, RT4), prostatic” for “(NCI-N87), prostate”, “breast” for “brest”, “HCC 1806),” for “HCC-1806),”
(§8) In vitro cell viability. Cell viability was analyzed as follows: cancer cells including pancreatic (PANC-1 and CFPAC-1), lung (HCC827 and H460), stomach (NCI-N87 and KATOIII), urothelial (J82, RT4), prostatic (PC3) and breast (MX-1 and HCC 1806), colorectal (HT-29) and ovarian (SK-OV-3 and OVCAR-3) were grown on 96 well plates to ˜60% confluence, the cells were starved for 24 h in culture medium containing 0.5% FBS. Cells were then treated with GHRH antagonists MIA602 AVR compounds at concentrations of 1, 2.5 or 5 μM, or vehicle (0.1% DMSO) in quintuplicates for 72 hours. The medium was replaced every 48 hours. Cell viability was measured using CellTiter 96 aqueous one solution kit (Promega). Inhibitory effects of tested AVR compounds in comparison to that of MIA602 are presented as inhibitory potency.
Inhibitory effects of selected AVR compounds in comparison to that of MIA602 are presented as inhibitory potency (e.g., percentage of inhibition). […] The cell lines tested including lung cancer HCC827 (FIG. 2A), pancreatic cancer CFPAC-1 (FIG. 2B), stomach cancer N87 (FIG. 2C), colon cancer HT-29 (FIG. 2D), breast cancers MX-1 and HCC1806 (FIGS. 2 E, F). Based on the results of cell proliferation assay after cancer cells were treated with antagonist at concentration of 5 μM for 72H, the relative inhibitory potency of AVR antagonists in comparison to MIA-602 is summarized in Table 3 A and B. Over 60 AVR compounds were tested in 12 cancer cell lines.
Based on the results of cell proliferation assay after cancer cells were treated with antagonist at concentration of 5 µM for 72H, * at concentration of 2 µM for 72 H.

[3] = tested on: breast cancer HCC-1806 xenograft; experiment: Xenograft tumor growth in nude mice, HCC-1806; assay type: in vivo; settings: Table 4K, Breast Ca HCC-1806, 5 weeks, 5 μg/day s.c.
Experimental: as §1, §2, §3, §4, §5, §6

[4] = tested on: prostate cancer PC3 xenograft; experiment: Xenograft tumor growth in nude mice, PC3; assay type: in vivo; settings: Table 4N, Prostate Ca PC3, 8 weeks, 5 μg/day s.c.; for % Inhibition: vs control
Experimental: as §1, §2, §3, §4, §5, §6

[5] = tested on: SK-OV-3 ovarian cancer cells; experiment: In vitro cell viability, SK-OV-3; assay type: cell-based, human; settings: Table 3B; * at 2 μM for 72 H; MIA-602 = 1
Experimental: as §7
as §3, with “(NCI-N87 and KATOIII), urothelial (J82, RT4), prostatic” for “(NCI-N87), prostate”, “breast” for “brest”, “HCC 1806),” for “HCC-1806),”
as §8
(§9) Inhibitory effects of selected AVR compounds in comparison to that of MIA602 are presented as inhibitory potency (e.g., percentage of inhibition). […] The cell lines tested including lung cancer HCC827 (FIG. 2A), pancreatic cancer CFPAC-1 (FIG. 2B), stomach cancer N87 (FIG. 2C), colon cancer HT-29 (FIG. 2D), breast cancers MX-1 and HCC1806 (FIGS. 2 E, F). […]

[6] = tested on: ovarian cancer OVCAR-3 xenograft; experiment: Xenograft tumor growth in nude mice, OVCAR-3; assay type: in vivo; settings: Table 4M, Ovarian Ca OVCAR-3, 9 weeks; for % Inhibition: vs control
Experimental: as §1, §2, §3, §4, §5, §6

[7] = tested on: OVCAR-3 ovarian cancer cells; experiment: In vitro cell viability, OVCAR-3; assay type: cell-based, human; settings: Table 3B; * at 2 μM for 72 H; MIA-602 = 1
Experimental: as §7
as §3, with “(NCI-N87 and KATOIII), urothelial (J82, RT4), prostatic” for “(NCI-N87), prostate”, “breast” for “brest”, “HCC 1806),” for “HCC-1806),”
as §8, §9

Compound: CCCC[C@H](NC(=O)[C@@H](NC(=O)[C@H](CC(=O)O)NC(=O)[C@H](CCC(N)=O)NC(=O)[C@H](CC(C)C)NC(=O)[C@H](CC(C)C)NC(=O)[C@H](CCCCN)NC(=O)[C@H](CCCNC(=N)N)NC(=O)[C@H](C)NC(=O)[C@H](CO)NC(=O)[C@H](CC(C)C)NC(=O)[C@H](CCC(N)=O)NC(=O)[C@H](CC)NC(=O)[C@H](CC(C)C)NC(=O)[C@@H](NC(=O)[C@H](CCCCN)NC(=O)[C@H](CCCNC(=N)N)NC(=O)[C@H](Cc1ccc(OC)cc1)NC(=O)[C@H](CCCCNC(=N)N)NC(=O)[C@H](CC(N)=O)NC(=O)[C@@H](NC(=O)[C@H](Cc1ccc(Cl)cc1)NC(=O)[C@@H](NC(=O)[C@H](C)NC(=O)[C@H](CC(=O)O)NC(=O)[C@@H](CCCNC(=N)N)NC(=O)[C@H](Cc1ccc(O)cc1)NC(=O)CCCCCCCCCCCNC(=O)Cc1c(F)c(F)c(F)c(F)c1F)[C@@H](C)CC)[C@@H](C)O)C(C)C)[C@@H](C)CC)C(=O)N[C@H](CCCNC(=N)N)C(=O)N[C@@H](CCCCNC(=N)N)C(=O)NCCCCCCCCCCCC(N)=O [AVR-333, 5FPhAC-Ada-Tyr-DArg-Asp-Ala-Ile-Cpa-Thr-Asn-Har-Tyr(Me)-Arg-Lys-Val-Leu-Abu-Gln-Leu-Ser-Ala-Arg-Lys-Leu-Leu-Gln-Asp-Ile-Nle-DArg-Har-Ada-NH2] ({Phenylacetyl(2,3,4,5,6-F5)-12Ado}-Y[dR]DAI[Phe(4-Cl)]TN[hArg]Y(Me)RKVL[Abu]QLSARKLLQDI[Nle][dR][hArg][12Ado]-NH2)
- Tumor Growth % ([1]; 5 μg/day s.c.): 1384.4%
- % Inhibition ([1]; 5 μg/day s.c.): 48.2%

Compound: CCCC[C@H](NC(=O)[C@@H](NC(=O)[C@H](CC(=O)O)NC(=O)[C@H](CCC(N)=O)NC(=O)[C@H](CC(C)C)NC(=O)[C@H](CC(C)C)NC(=O)[C@H](CCCCN)NC(=O)[C@H](CCCNC(=N)N)NC(=O)[C@H](C)NC(=O)[C@H](CO)NC(=O)[C@H](CC(C)C)NC(=O)[C@H](CCC(N)=O)NC(=O)[C@H](CC)NC(=O)[C@H](CC(C)C)NC(=O)[C@@H](NC(=O)[C@H](CCCCN)NC(=O)[C@H](CCCNC(=N)N)NC(=O)[C@H](Cc1c(F)c(F)c(F)c(F)c1F)NC(=O)[C@H](CCCCNC(=N)N)NC(=O)[C@H](C)NC(=O)[C@@H](NC(=O)[C@H](Cc1ccc(Cl)cc1)NC(=O)[C@@H](NC(=O)[C@H](C)NC(=O)[C@H](CC(=O)O)NC(=O)[C@@H](CCCNC(=N)N)NC(=O)[C@H](Cc1ccc(O)cc1)NC(=O)CCCCCCCCCCCNC(=O)Cc1c(F)c(F)c(F)c(F)c1F)[C@@H](C)CC)[C@@H](C)O)C(C)C)[C@@H](C)CC)C(=O)N[C@H](CCCNC(=N)N)C(=O)N[C@@H](CCCCNC(=N)N)C(=O)NCCCCCCCCCCCC(=O)NC [AVR-354] ({Phenylacetyl(2,3,4,5,6-F5)-12Ado}-Y[dR]DAI[Phe(4-Cl)]TA[hArg][Phe(F5)]RKVL[Abu]QLSARKLLQDI[Nle][dR][hArg][12Ado]-NHMe)
- In vitro relative inhibitory potency in comparison to MIA-602, HCC-1806 [2]: 3.991
- Tumor Growth % [3]: 680.2%
- % Inhibition ([3]; vs control): 43.1%
- Tumor Size (mm3) [4]: 343.6 mm3
- % Inhibition [4]: 58.4%

Compound: CCCC[C@H](NC(=O)[C@@H](NC(=O)[C@H](CC(=O)O)NC(=O)[C@H](CCC(N)=O)NC(=O)[C@H](CC(C)C)NC(=O)[C@H](CC(C)C)NC(=O)[C@H](CCCCN)NC(=O)[C@H](CCCNC(=N)N)NC(=O)[C@H](C)NC(=O)[C@H](CO)NC(=O)[C@H](CC(C)C)NC(=O)[C@H](CCC(N)=O)NC(=O)[C@H](CC)NC(=O)[C@H](CC(C)C)NC(=O)[C@@H](NC(=O)[C@H](CCCCN)NC(=O)[C@H](CCCNC(=N)N)NC(=O)[C@H](Cc1c(F)c(F)c(F)c(F)c1F)NC(=O)[C@H](CCCCNC(=N)N)NC(=O)[C@H](C)NC(=O)[C@@H](NC(=O)[C@H](Cc1ccc(Cl)cc1)NC(=O)[C@@H](NC(=O)[C@H](C)NC(=O)[C@H](CC(=O)O)NC(=O)[C@@H](CCCNC(=N)N)NC(=O)[C@H](Cc1ccc(O)cc1)NC(=O)CCCCCCCCCCCNC(=O)Cc1c(F)c(F)c(F)c(F)c1F)[C@@H](C)CC)[C@@H](C)O)C(C)C)[C@@H](C)CC)C(=O)N[C@H](CCCNC(=N)N)C(=O)N[C@@H](CCCCNC(=N)N)C(=O)NCCCCCCCCCCCC(N)=O [AVR-353, 5FPhAC-Ada-Tyr-DArg-Asp-Ala-Ile-Cpa-Thr-Ala-Har-5FPhe-Arg-Lys-Val-Leu-Abu-Gln-Leu-Ser-Ala-Arg-Lys-Leu-Leu-Gln-Asp-Ile-Nle-DArg-Har-Ada-NH2] ({Phenylacetyl(2,3,4,5,6-F5)-12Ado}-Y[dR]DAI[Phe(4-Cl)]TA[hArg][Phe(F5)]RKVL[Abu]QLSARKLLQDI[Nle][dR][hArg][12Ado]-NH2)
- In vitro relative inhibitory potency in comparison to MIA-602, SKOV-3 [5]: 1.04*
- Tumor Growth % ([1]; 2.5 μg/day s.c.): 1482.8%
- % Inhibition ([1]; 2.5 μg/day s.c.): 44.5%
- Tumor Growth % ([1]; 5 μg/day s.c.): 1257.3%
- % Inhibition ([1]; 5 μg/day s.c.): 52.9%
- Tumor Growth % ([1]; 10 μg/day s.c.): 1005.1%
- % Inhibition ([1]; 10 μg/day s.c.): 62.4%
- In vitro relative inhibitory potency in comparison to MIA-602, HCC-1806 [2]: 9.396
- Tumor Size (mm3) ([6]; 2.5 μg/day s.c.): 357.0 mm3
- % Inhibition ([6]; 2.5 μg/day s.c.): 25.7%
- Tumor Size (mm3) ([6]; 5 μg/day s.c.): 255.2 mm3
- % Inhibition ([6]; 5 μg/day s.c.): 46.9%
- In vitro relative inhibitory potency in comparison to MIA-602, OVCAR-3 [7]: 1.55*
- Tumor Size (mm3) [4]: 496.7 mm3
- % Inhibition [4]: 39.9%

From US20210395327A1, “Growth Hormone-Releasing Hormone Antagonists and Uses Thereof” (United States Government As Represented By The Department …, priority 2019, published 2021)
